# Data reported in patent US20250276980A1, “SALTS OF A HETEROCYCLIC COMPOUND AND CRYSTALLINE FORMS, PROCESSES FOR PREPARING, THERAPEUTIC USES, AND PHARMACEUTICAL COMPOSITIONS THEREOF” (Sunovion Pharmaceuticals Inc., priority 2020, published 2025).
# “Also recorded” adds a separate entry of the source. Read-outs that look alike come from different tables or passages of the source.
# Assays:
# Type in all cases: physicochemical
# [1] = Dynamic vapor sorption (DVS) moisture sorption isotherm, Hiden IGA-sorp; details: for weight gain when humidity increased from 0% RH to 95% RH: 25° C., 0% RH up to 95% RH
# Description: (§1) DVS moisture sorption isotherms were generated using a Hiden Analytical IGA-sorp moisture sorption analyzer. Samples were run as received without pre-analysis drying. Each sample was equilibrated between about 30 and 120 minutes at each relative humidity (RH) step. Temperature was fixed at about 25° C. and the relative humidity steps (0 to 95% RH) were in 5-10% increments. Sample sizes ranged from 3 to 30 mg. After DVS measurement, XRPD was measured in order to check the solid form. Dynamic Vapor sorption (DVS) moisture sorption isotherms were generated using IGA-sorp moisture sorption analyzer (Hiden Analytical). Sample measurements were run without drying before analyses. XRPD was measured in order to check any changes of the solid form after the moisture sorption/desorption. The measurement condition is shown below: • Time at each RH steps: From 30 to 120 minutes • Relative humidity steps: 5 or 10% steps • Temperature: 25° C.
# [2] = Thermogravimetric analysis (TGA); details: for TG weight loss: from 70° C., hydrochloride
# Description: TGA analyses were performed using a TA Instruments TGA Q500 thermogravimetric analyzer. Each sample was analyzed on a platinum pan, heated under a nitrogen purge at a rate of 10° C./min, from room temperature to 250° C. or 300° C.
# Thermo-Gravimetric Analyzer (TGA) analyses were performed using TGA Q500 thermogravimetric analyzer (TA Instruments). Each sample was analyzed on a platinum pan. The measurement condition is shown below: • Atmosphere: Nitrogen • Elevated temperature rate: 10° C./min • Temperature range: From room temperature to 250 or 300° C.
# [3] = XRPD before and after DVS measurement (moisture sorption/desorption)
# Description: as §1
# [4] = Storage at 75% RH (saturated NaCl), solid form checked by Raman/XRPD; details: overnight / 1 day
# Description: Fumaric acid salt Form FB has about 3.8% weight loss from low temperature with TGA measurement. From DVS result, there is about 5% weight gain at over 75% RH, so polymorphic form seems to be changed. […] Therefore, Form FA seems to be di-hydrate. Form FB seems to be mono-hydrate. The thermal behavior of Form FA is a little different from that of Form FB. Form FA generated the experiment described above using about 28 mg of fumaric acid and about 2 mL of THE seems to be easy to be dehydrated. It can be affected by vacuum dry. When Form FA and Form FB are placed under dry condition or heated, anhydrous form can be obtained. But they are quickly transformed to be hydrous form by obtaining water in the air.
# It was confirmed that Form HC was reproducible even in the scale up study. […] The NMR spectrum shown indicated no presence of organic solvents.
# [5] = Polymorph study of Compound 1 Hydrochloride (solvent, slurry screening, scale up; FT-Raman/XRPD); details: on filtration/drying, humidity or room temperature
# Description: FT-Raman analyses were performed by using MultiRAM (Bruker Optics). Each suspension or dry powder sample was measured from out of glass vial. The measurement condition is shown below: • Excitation wavelength: 1064 nm • Laser power: 500 mW • Wavenumber: 4 cm-1 • Sample scan: 128 times
# X-ray Powder Diffraction (XRPD) spectra were obtained by X′ pert Pro MPD (Spectris). X-rays was generated with Cu Kα radiation. The powder samples were put on the reflection free sample plate. The XRPD patterns were analyzed by HighScorePlus. The measurement condition is shown below: • Range angle: From 4 to 30°, to 40° and to 65° (20) • Step size: 0.017° • Time per step: 100 s
# Compound 1 Hydrochloride, Form HA (about 5 mg) was put into each small glass vial and various types of solvents were added until the sample was dissolved at about 90° C. or boiling point. Maximum volume of solvent was about 500 μL. After the solution and suspension was heated for a few hours, the heater was switched off and the sample was cooled. The vials were preserved at about 5° C. Crystals obtained in the vials were measured directly by FT-Raman. After solvent was evaporated by opening the cap of vial, crystals obtained were also measured directly by FT-Raman. Solids were then collected and evaluated by XRPD and thermal analysis as needed.
# Compound 1 Hydrochloride, Form HA (about 10 mg) was put into each small glass vial and various types of organic solvents mixed with water were added. After each sample was suspended at room temperature for about 3 days, suspended solids in the vials were measured directly by FT-Raman. Furthermore, each sample was suspended at about 50° C. for about 3 days and these were measured directly by FT-Raman. Solids were then collected and evaluated by XRPD, thermal analysis and DVS as needed.
# Compound 1 Hydrochloride, Form HA (about 100 mg) was put into a glass vial and about 1 mL of EtOH mixed with water (10:1) was added. […] It was analyzed by XRPD, thermal analysis, ^1H-NMR, elemental analysis and ion-chromatography.
# [6] = Solubility of Compound 1 Tosylate in solvents
# Description: Considering the formation of the genotoxic impurities with alcohol, water was selected as the solvent and acetone as the anti-solvent. The solubility in the water-acetone binary solvent system indicates the feasibility for crystallization in this solvent system. Further solubility was also measured to help define the operation conditions.
# [7] = Differential scanning calorimetry (DSC); details: sealed pan, 10° C./min
# Description: DSC chart was obtained using a TA Instruments DSC Q1000 differential scanning calorimeter. Each sample was analyzed in a crimped pan with a pinhole, heated under a nitrogen purge at a rate of 10° C./min, from 10° C. to 250° C. or 300° C.
# Differential Scanning Calorimeter (DSC) chart was obtained by DSC Q1000 differential scanning calorimeter (TA Instruments). Each sample was analyzed in a crimped pan with a pinhole. The measurement condition is shown below: • Atmosphere: Nitrogen • Elevated temperature rate: 10° C./min • Temperature range: From 10° C. to 250 or 300° C.
# All DSC analyses were performed using TA Instruments Q100 differential scanning calorimeter. Lots 1-3 were analyzed in a sealed pan. Each sample was heated under a 50 mL/min nitrogen purge at a heating rate of 10° C./min, from a starting temperature of 25° C. up to a final temperature of 300° C. Sample size ranged from […].
# [8] = Temperature controlled XRPD (crystal form stability on heating); details: up to melting
# Description: Temperature controlled XRPD was measured by the X'pert-MPD with an Anton Paar TCU 100 Temperature Control Unit. Sample was measured from 30° C. to 250° C. or 270° C. with 10° C. increments. Measurement conditions were as follows: range: 4-30°, step: 0.017°, time per step: 100 s.
# FT-Raman, XRPD, DSC, TGA, and DVS instruments and techniques were similar to those in Example 3. Temperature controlled XRPD was measured by X'pert-Pro MIPD (Spectris) with TCU 100 Temperature Control Unit (Anton Paar). The temperature of the sampling stage was increased step by step as programmed and XRPD patterns of sample were measured at each step. The measurement condition is shown below: • Range angle: From 4 to 30° • Step size: 0.017° • Time per step: 100 s
# [9] = Lot 1, recrystallized from water/acetone
# [10] = Lot 2, recrystallized from water/acetone
# [11] = Lot 3, recrystallized from water/acetone
structure (smiles),measurement,setting,value
"CNC[C@@H]1OCCn2nc3ccccc3c21.Cl [Form HC, (S)-1-(3,4-dihydro-1H-[1,4]oxazino[4,3-b]indazol-1-yl)-N-methylmethanamine hydrochloride]",weight gain when humidity increased from 0% RH to 95% RH,[1],9.3%
same,weight gain between 60% RH and 70% RH,[1]; between 60% RH and 70% RH,6.5%
same,hygroscopicity (in words),[1]; hydrochloride,hygroscopic
same,TG weight loss,[2],6.6%
same,change of crystal form after DVS measurement,[3]; hydrochloride,basically stable
same,change of crystal form on storage at high humidity,[4],transformed to Form HD
same,stability of the crystal form,[5],Transformed to Form D at the humidity level of more than 70% RH
"CNC[C@@H]1OCCn2nc3ccccc3c21.O=P(O)(O)O [Compound 1 Phosphate, (S)-1-(3,4-dihydro-1H-[1,4]oxazino[4,3-b]indazol-1-yl)-N-methylmethanamine phosphate]",TGA weight loss (in words),"[2]; listed as phosphate salt, phosphate",large amount of weight loss at low temperature
same,TGA weight loss (in words),[2]; phosphate,large amount of weight loss from low temperature
"CNC[C@@H]1OCCn2nc3ccccc3c21.O=C(O)/C=C/C(=O)O [Compound 1 Fumarate, (S)-1-(3,4-dihydro-1H-[1,4]oxazino[4,3-b]indazol-1-yl)-N-methylmethanamine fumarate]",hygroscopicity (in words),[1],no hygroscopicity
"CNC[C@@H]1OCCn2nc3ccccc3c21.O=C(O)/C=C/C(=O)O [Form FB, (S)-1-(3,4-dihydro-1H-[1,4]oxazino[4,3-b]indazol-1-yl)-N-methylmethanamine fumarate]",weight gain at over 75% RH,[1]; over 75% RH,about 5%
same,TGA weight loss,[2]; from low temperature,about 3.8%
same,change of crystal form on storage at high humidity,[4],Form FA was observed
"CNC[C@@H]1OCCn2nc3ccccc3c21.Cc1ccc(S(=O)(=O)O)cc1 [Compound 1 Tosylate, (S)-1-(3,4-dihydro-1H-[1,4]oxazino[4,3-b]indazol-1-yl)-N-methylmethanamine tosylate]",weight gain at 95% RH,[1]; about 25° C.,about 1%
same,hygroscopicity (in words),"[1]; listed as Tosylate, tosylate",less hygroscopicity
same,hygroscopicity (in words),"[1]; listed as tosylate, tosylate",low hygroscopicity
same,solubility (in words),[6],decent solubility in methanol and water
same,DSC Onset,[7]; [9],240.5 °C
same,DSC Peak,[7]; [9],241.9 °C
same,DSC ΔHf,[7]; [9],122 J/g
same,DSC Onset,[7]; [10],240.2 °C
same,DSC Peak,[7]; [10],241.7 °C
same,DSC ΔHf,[7]; [10],113 J/g
same,DSC Onset,[7]; [11],239.7 °C
same,DSC Peak,[7]; [11],241.4 °C
same,DSC ΔHf,[7]; [11],123 J/g
"CNC[C@@H]1OCCn2nc3ccccc3c21.O=S(=O)(O)c1ccccc1 [Form BA, (S)-1-(3,4-dihydro-1H-[1,4]oxazino[4,3-b]indazol-1-yl)-N-methylmethanamine benzenesulfonate]",weight gain at 90% RH,[1]; another batch of Form BA,about 1%
same,weight gain at 90% RH,[1]; one batch of Form BA,about 2%
same,weight gain at 95% RH,[1]; another batch of Form BA,about 2%
same,weight gain at 95% RH,[1]; one batch of Form BA,about 8%
same,hygroscopicity (in words),[1]; benzenesulfonate,less hygroscopicity; also recorded: good hygroscopicity behavior
same,transformation to another polymorph on heating,[8],not transformed to any other polymorph
"CNC[C@@H]1OCCn2nc3ccccc3c21.Cc1ccc(S(=O)(=O)O)cc1 [Form TA, (S)-1-(3,4-dihydro-1H-[1,4]oxazino[4,3-b]indazol-1-yl)-N-methylmethanamine tosylate]",weight gain when humidity increased from 0% RH to 95% RH,[1],~1%
same,hygroscopicity (in words),[1]; tosylate,less hygroscopicity; also recorded: good hygroscopicity behavior; also recorded: non-hygroscopicity
same,TGA weight loss (in words),[2],no weight loss until melting
same,transformation to another polymorph on heating,[8]; tosylate,not transformed to any other polymorph; also recorded: not transformed to another form until the melting point
same,change of crystal form after DVS measurement,[3],no changes of the crystal form
"CNC[C@@H]1OCCn2nc3ccccc3c21.O=S(=O)(O)c1ccccc1 [Compound 1 Besylate, (S)-1-(3,4-dihydro-1H-[1,4]oxazino[4,3-b]indazol-1-yl)-N-methylmethanamine benzenesulfonate]",weight gain at 95% RH,[1]; about 25° C.,about 2%
same,hygroscopicity (in words),"[1]; listed as besylate, benzenesulfonate",less hygroscopicity; also recorded: low hygroscopicity
same,TGA weight loss (in words),[2],no weight loss until melting
"CNC[C@@H]1OCCn2nc3ccccc3c21.Cl [Form HB, (S)-1-(3,4-dihydro-1H-[1,4]oxazino[4,3-b]indazol-1-yl)-N-methylmethanamine hydrochloride]",stability of the crystal form,[5],transformed to Form HC or Form HA when it was filtrated and dried; also recorded: Not stable
"CNC[C@@H]1OCCn2nc3ccccc3c21.Cl [Form HA, (S)-1-(3,4-dihydro-1H-[1,4]oxazino[4,3-b]indazol-1-yl)-N-methylmethanamine hydrochloride]",weight gain at 95% RH,[1]; about 25° C.,over 100%
same,hygroscopicity (in words),[1]; hydrochloride,Highly hygroscopic
same,TG weight loss,[2],over 17.1%
same,change of crystal form after DVS measurement,[3]; hydrochloride,transformed to Form HC mixed with an unidentified polymorph
"CNC[C@@H]1OCCn2nc3ccccc3c21.Cl [Form HD, (S)-1-(3,4-dihydro-1H-[1,4]oxazino[4,3-b]indazol-1-yl)-N-methylmethanamine hydrochloride]",stability of the crystal form,[5],Transformed to Form C at room temperature
"CNC[C@@H]1OCCn2nc3ccccc3c21.O=C(O)/C=C/C(=O)O [Form FA, (S)-1-(3,4-dihydro-1H-[1,4]oxazino[4,3-b]indazol-1-yl)-N-methylmethanamine fumarate]",transformation to another polymorph on heating,[8],not transformed to any other polymorph
